{
  "source": "patent US20060247323A1",
  "about": "“Stabilisation of light sensitive substances” (priority 2000, published 2006)",
  "system": "cockroaches",
  "assay": "Biological knockdown of cockroaches on glass plates sprayed with diluted d-phenothrin emulsions I, J and neat d-phenothrin",
  "type": "in vivo",
  "conditions": "30 mg active pesticide/m^2",
  "method": "Samples of the emulsions I and J and neat d-phenothrin are diluted in water and sprayed onto a glass plates to give a concentration of 30 mg active pesticide/m^2. The samples are tested for biological knockdown of cockroaches for 15 minute and 24 hour exposure on the plates and the effectiveness of the pesticide on the treated plates monitored periodically under light and dark conditions. The results of the tests conducted in daylight are shown in Table 3. and those conducted in the dark are shown Table 4.",
  "key": {"[1]": {"conditions": "daylight, 7 days after application to plates"}, "[2]": {"conditions": "daylight, 14 days after application to plates"}, "[3]": {"conditions": "daylight, 21 days after application to plates"}, "[4]": {"conditions": "daylight, 49 days after application to plates"}, "[5]": {"conditions": "daylight, 63 days after application to plates"}, "[6]": {"conditions": "daylight, 91 days after application to plates"}},
  "data": [
    {"smiles": "CC(C)=CC1C(C(=O)OCc2cccc(Oc3ccccc3)c2)C1(C)C", "note": "(stereo not drawn) [phenothrin, d-phenothrin]", "values": [
      {"measurement": "% Kill after 15 minute exposure", "setting": "dark, 1 day after application to plates", "value": 100, "unit": "%"},
      {"measurement": "% Kill after 15 minute exposure", "setting": "dark, 7 days after application to plates", "value": 100, "unit": "%"},
      {"measurement": "% Kill after 15 minute exposure", "setting": "dark, 14 days after application to plates", "value": 100, "unit": "%"},
      {"measurement": "% Kill after 15 minute exposure", "setting": "dark, 21 days after application to plates", "value": 100, "unit": "%"},
      {"measurement": "% Kill after 15 minute exposure", "setting": "dark, 49 days after application to plates", "value": 100, "unit": "%"},
      {"measurement": "% Kill after 15 minute exposure", "setting": "dark, 63 days after application to plates", "value": 100, "unit": "%"},
      {"measurement": "% Kill after 15 minute exposure", "setting": "dark, 91 days after application to plates", "value": 100, "unit": "%"},
      {"measurement": "% Kill after 15 minute exposure", "setting": "daylight, 1 day after application to plates", "value": 100, "unit": "%"},
      {"measurement": "% Kill after 15 minute exposure", "setting": "[1]", "value": 0, "unit": "%"},
      {"measurement": "% Kill after 24 hour exposure (in brackets)", "setting": "[1]", "value": 10, "unit": "%"},
      {"measurement": "% Kill after 15 minute exposure", "setting": "[2]", "value": "0 (0) %"},
      {"measurement": "% Kill after 24 hour exposure (in brackets)", "setting": "[2]", "value": "0 (0) %"},
      {"measurement": "% Kill after 15 minute exposure", "setting": "[3]", "value": 10, "unit": "%"},
      {"measurement": "% Kill after 24 hour exposure (in brackets)", "setting": "[3]", "value": 0, "unit": "%"},
      {"measurement": "% Kill after 15 minute exposure", "setting": "[4]", "value": "10 (10) %"},
      {"measurement": "% Kill after 24 hour exposure (in brackets)", "setting": "[4]", "value": "10 (10) %"},
      {"measurement": "% Kill after 15 minute exposure", "setting": "[5]", "value": 10, "unit": "%"},
      {"measurement": "% Kill after 24 hour exposure (in brackets)", "setting": "[5]", "value": 40, "unit": "%"},
      {"measurement": "% Kill after 15 minute exposure", "setting": "[6]", "value": "0 (0) %"},
      {"measurement": "% Kill after 24 hour exposure (in brackets)", "setting": "[6]", "value": "0 (0) %"}
    ]}
  ]
}
